Where two headings read alike, the source gives them in different places.
What was measured:
[1] = tested on: NanoLuc-PEST expressing L. mexicana axenic amastigotes; assay: microbe, parasite or virus in culture; format: cell-based; conditions: for EC90: read-out: EC90 against amastigotes, Axenic; for viability at 2 µM / viability at 10 µM: read-out: Relative Bioluminescence (%)
[2] = tested on: L. mexicana NanoLuc-PEST intramacrophage amastigotes; assay: Bioluminescence-based intramacrophage assay in THP-1 infection model; format: cell-based; conditions: for EC50: read-out: EC50 against amastigotes, Intramacrophage; for EC90: read-out: EC90 against amastigotes, Intramacrophage
THP-1 cell line = assay: Macrophage toxicity assay (PrestoBlue); conditions: read-out: THP1 EC50, PMA-differentiated THP-1 macrophages, 72 hours
HepG2 = conditions: ref MMV Pathogen Box website, cited from earlier work; for CC50: read-out: HepG2 CC50
[3] = tested on: L. donovani intramacrophage amastigotes; conditions: cited from earlier work
[4] = tested on: L. donovani axenic amastigotes; conditions: cited from earlier work
[5] = 2 µM compound, 72 hours, relative to DMSO only control, n = 4
[6] = 10 µM compound, 72 hours, relative to DMSO only control, n = 4
[7] = hit compounds from the axenic amastigote screen, S3 Table, read-out: EC50, Axenic Amastigotes
[8] = read-out: EC50 against amastigotes, Axenic
[9] = THP-1 infection model, bioluminescence
[10] = Leishmania mexicana, 2 µM compound, 72 hours, relative to DMSO only control, n = 4
[11] = Leishmania mexicana, 10 µM compound, 72 hours, relative to DMSO only control, n = 4

Structure (SMILES) | Relative Bioluminescence (%) [1, 5] [%] | Relative Bioluminescence (%) [1, 6] [%] | further results
Cc1ccc(NC(=O)c2nc[nH]c2C(=O)Nc2nc3ccccc3[nH]2)c(C)c1 [MMV011903] | -0.43 | -1.14 | EC50 [1, 7]: 180 nM; EC50 [1, 8]: 189 nM; EC90 [1]: 320 nM; EC50 [2, 9]: 2020 nM; EC90 [2, 9]: 2290 nM; EC50 (THP-1 cell line): > 50000 nM; CC50 (HepG2): > 10000 nM; HepG2 CC20 (HepG2): 8400 nM
C[C@]1(COc2ccc(N3CCC(Oc4ccc(OC(F)(F)F)cc4)CC3)cc2)Cn2cc([N+](=O)[O-])nc2O1 [MMV688262, Delamanid, reference compound] |  |  | EC50 ([3]; value in brackets ref 54, read-out: Previous EC50, intramacrophage amastigotes): 86.5 to 298 nM; viability at 2 µM [1, 10]: -4.37%; viability at 10 µM [1, 11]: -2.71%; EC50 ([1]; Leishmania mexicana, hit compounds from the axenic amastigote screen, S3 Table, read-out: EC50, Axenic Amastigotes): 30 nM; EC50 ([1]; Leishmania mexicana, read-out: EC50 against amastigotes, Axenic): 33 nM; EC90 ([1]; Leishmania mexicana): 112 nM; EC50 ([2]; Leishmania mexicana, THP-1): 1780 nM; EC90 ([2]; Leishmania mexicana, THP-1): 25100 nM; CC50 (HepG2): 72500 nM; EC50 ([4]; value in brackets ref 54, read-out: Previous EC50, axenic amastigotes): 5 nM
Nc1ncnc2c1ncn2[C@@H]1O[C@H](COS(=O)(=O)NC(=O)c2ccccc2O)[C@@H](O)[C@H]1O [MMV687700] | 67.55 | 61.64 | 
O=C(NC1CC1)c1ccc(N2CCC(Cc3ccccc3)CC2)nc1 [MMV024397] | 92.24 | 86.39 | 
OC[C@H]1O[C@@H](n2c3ccc(Cl)cc3c3c(-c4cc5ccccc5o4)ncnc32)C(O)[C@H]1O (some centres unmarked) [MMV688921] | 84.76 | 105.56 | 
Nc1ncnc2c1ncn2C[C@@H](O)[C@@H](O)C(=O)O [MMV689255, D-Eritadenine] | 68.65 | 73.04 | 
Cc1nn(Cc2ccccc2)c(Cl)c1C(=O)NC1CCCCCC1 [MMV063404] | 86.21 | 79.51 | 
COc1ccc(S(=O)(=O)Nc2ccc(CN3CCN(C(=O)c4cccc(C#N)c4)CC3)cc2)cc1 [MMV689029] | 67.41 | 57.59 | 
CCc1nn(C)c(C(=O)NCc2ccc(Oc3ccc(C)cc3)cc2)c1Cl [MMV688934, Tolfenpyrad] |  |  | viability at 2 µM [1, 10]: 68.5%; viability at 10 µM [1, 11]: 68.1%
O=C(NCCN1CCCC1)c1cc(NCCN2CCOCC2)nc2ccc(Cl)cc12 [MMV634140] | 112.61 | 73.96 | 
CC1CS(=O)(=O)CCN1/N=C/c1ccc([N+](=O)[O-])o1 (centres unmarked) [MMV001499, Nifurtimox, reference compound] |  |  | viability at 2 µM ([1]; Leishmania mexicana, 72 h): 7.65%; viability at 10 µM ([1]; Leishmania mexicana, 72 h): -2.17%
CC(=O)NCC1CN(c2ccc(-c3ccc(CO)cc3)c(F)c2)C(=O)O1 (centres unmarked) [MMV688508] | 98.16 | 65.29 | 
Brc1c(-c2ccc3c(c2)OCO3)nc2ncccn12 [MMV676377] | 78.14 | 74.59 | 
Nc1nc2cc(-c3cncc(Oc4ccc(F)cc4)c3)ccc2[nH]1 [MMV687248] | 81.54 | 88.99 | 
CC[C@@H](CO)NCCN[C@@H](CC)CO [MMV687801, Ethambutol, reference compound] |  |  | viability at 2 µM [1, 10]: 98.6%; viability at 10 µM [1, 11]: 127%
CCC(Sc1nc2ccccc2o1)C(=O)Nc1nccs1 (centres unmarked) [MMV676383] | 136.33 | 127.92 | 
CC1=Nc2ccc(Cl)cc2C(O)(c2ccc(C)cc2)N1CCN1CCCCC1 (centres unmarked) [MMV688279] | 70.45 | 75.33 | 
O=C(Nc1nnc(-c2ccc(Cl)s2)o1)c1ccc(Cl)s1 [MMV676501] | -0.04 | -0.69 | EC50 [1, 7]: 300 nM
NCCC[C@](N)(C(=O)O)C(F)F [MMV001625, α-Difluoromethylornithine, reference compound] | 69.72 | 81.23 | 
O=[N+]([O-])c1cn2c(n1)OC[C@@H](OCc1ccc(OC(F)(F)F)cc1)C2 [MMV688755] | 26.38 | 0.45 | 
COc1cc(C(F)(F)F)nc2ccc(C)c(N)c12 [MMV047015] | 86.47 | 82.90 | 
CC(C)(C)C(O)C(Oc1ccc(-c2ccccc2)cc1)n1cncn1 (centres unmarked) [MMV688942, Bitertanol] |  |  | viability at 2 µM [1, 10]: 21%; viability at 10 µM [1, 11]: 15.4%
C[C@H](C(N)=O)N1CCCC[C@H]1c1ccc(OCc2cccc(F)c2)cc1 [MMV676269] | 85.78 | 76.17 | 
Cc1ccc2[nH]c3c(NCCN(C)C)ncnc3c2c1 [MMV006372] | 63.77 | 81.31 | 

Structure (SMILES) | Relative Bioluminescence (%) [1, 5] [%] | Relative Bioluminescence (%) [1, 6] [%] | further results
CC(C)(C)c1cc(C(=O)Nc2cccnc2)cc(C(=O)Nc2cccnc2)c1 [MMV020982] | 109.38 | 93.07 | 
O=C(Nc1ccccc1)c1ccc(-c2cc3ccncc3cc2OC2CCNCC2)s1 [MMV024035] | 86.60 | 79.61 | 
c1csc(-c2cnc3sc(NCC4CCOCC4)nn23)c1 [MMV010764] | 69.50 | 31.69 | 
Cc1ccc(S(=O)(=O)n2cc(-c3ccnc(N)c3)c3cc(Br)cnc32)cc1 [MMV024114] | 103.63 | 69.99 | 
Cc1cc(Nc2ccc(C(F)(F)F)cc2)n2ccnc2n1 [MMV011229] | 102.18 | 84.66 | 
Cc1cc(C)n2nc(C(=O)Nc3cc(C(F)(F)F)ccc3N3CCOCC3)nc2n1 [MMV019087] | 89.61 | 89.32 | 
COc1ccc(Cl)cc1NC(=O)CN(C)C(=O)c1cnn(-c2ccccc2)n1 [MMV020710] | 102.08 | 128.98 | 
c1ccc(-c2cc(N3CCCCC3)c3ccccc3n2)nc1 [MMV560185] | 64.27 | 94.77 | 
Nc1ccc(C(=O)Nc2ccc(-c3nc4ccccc4o3)cc2)cc1 [MMV007920] | 112.76 | 88.96 | 
O=C1COCc2ccc(Br)cc2N1Cc1ccc(C(F)(F)F)cc1 [MMV032995] | 97.31 | 90.22 | 
CCOc1ccc(-c2nc(CNCCc3ccc(F)cc3)cs2)cc1 [MMV688938] | 63.80 | 76.80 | 
O=C(C1CCN(c2nnnn2-c2ccccc2)CC1)N1CCc2ccccc2C1 [MMV009135] | 83.57 | 73.86 | 
CCN(CC)S(=O)(=O)c1ccc(C(=O)Nc2cc(C)nn2-c2nc(C)c(C)c(=O)[nH]2)cc1 [MMV595321] | -4.54 | -3.10 | EC50 ([3]; value in brackets ref 49, 53, read-out: Previous EC50, intramacrophage amastigotes): 3160 nM; EC50 [1, 7]: 150 nM; EC50 [1, 8]: 153 nM; EC90 [1]: 357 nM; EC50 [2, 9]: 5300 nM; EC90 [2, 9]: 11200 nM; EC50 (THP-1 cell line): > 50000 nM; EC50 ([4]; value in brackets ref 49, 53, read-out: Previous EC50, axenic amastigotes): 501 nM
c1ccc(Oc2ccc(-c3cncc(-c4ccc5[nH]ccc5c4)n3)cc2)cc1 [MMV688178] | 91.24 | 94.95 | 
COc1cc(Br)cc2cc(C(=O)Nc3cccc(C(F)(F)F)c3)c(=O)oc12 [MMV688891] | 75.74 | 64.36 | 
Cc1ccc(C(=O)Nc2ccc(S(=O)(=O)O)c3cc(S(=O)(=O)O)cc(S(=O)(=O)O)c23)cc1NC(=O)c1cccc(NC(=O)Nc2cccc(C(=O)Nc3cc(C(=O)Nc4ccc(S(=O)(=O)O)c5cc(S(=O)(=O)O)cc(S(=O)(=O)O)c45)ccc3C)c2)c1 [MMV637953, Suramin, reference compound] |  |  | viability at 2 µM [1, 10]: 105%; viability at 10 µM [1, 11]: 117%
Cc1cc(C(=O)Nc2ccc(-c3ccccc3)cc2)no1 [MMV020152] | 89.71 | 108.81 | 
CCn1ncc2c(NC3CCOCC3)c(CNC(=O)c3ccnn3C)c(C)nc21 [MMV026356] | 76.21 | 65.05 | 
CNC(=O)CNc1nc(-c2ccccn2)nc2scc(-c3ccccc3)c12 [MMV1029203] | 83.99 | 52.70 | 
O=C(Nc1cnc2ccccc2c1)c1cccc(-n2cnnn2)c1 [MMV084864] | 74.64 | 55.81 | 
COc1cc(C2=NCCN2)ccc1-c1cn(-c2cccc(C3=NCCN3)c2)nn1 [MMV688407] | 99.20 | 50.94 | 
CCCCc1ccc(NC(=O)Nc2ccc(O[C@H]3CCCC[C@@H]3N(C)c3ccccc3)c(F)c2)cc1 [MMV676063] | 99.42 | 66.65 | 
NCCN(C(=O)c1ccc(Cl)cc1Cl)c1ccc(OCc2ccc(Cl)cc2)cc1 [MMV688371] | 95.57 | 61.94 | 
